PubChem BioAssay AID342 (DTP/NCI, 2004)
Several values for one entry are separate records, joined by “and”; a condition that tells them apart may be missing. Equal entries are not always repeated. Square brackets hold non-standard residues; d marks the D form. Peptide text beside a SMILES is read from it. Ac5c = NC1(C(=O)O)CCCC1

Test system: Swiss mice, Sarcoma 180 sc, mean tumor weight T/C
Assay: NCI In Vivo Anticancer Drug Screen. Data for tumor model Sarcoma 180 (subcutaneous) in Swiss mice
Settings: endpoint: mean tumor weight, higher = larger tumour
How it was run: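 T/C ratio: treated over vehicle-treated controls, measuring survival or tumor size in transplanted-tumor mice.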

## COc1cc2c(c(OC3OC(CO)C(O)C(O)C3O)c1)C(=O)CC(c1ccc(O)cc1)O2 (stereo not given)
dose: 100.0 mg/kg/injection, schedule: Q01DX007 (ip), vehicle: other
  T/C: 90 % of control
dose: 200.0 mg/kg/injection, schedule: Q01DX007 (ip), vehicle: other
  T/C: 71 % of control

## CCCN(C)/N=N/c1nc[nH]c1C(N)=O
dose: 31.0 mg/kg/injection, schedule: Q01DX007 (ip), vehicle: carboxymethylcellulose (CMC)
  T/C: 55 % of control
dose: 46.0 mg/kg/injection, schedule: Q01DX007 (ip), vehicle: carboxymethylcellulose (CMC)
  T/C: 37 % of control
dose: 62.0 mg/kg/injection, schedule: Q01DX007 (ip), vehicle: carboxymethylcellulose (CMC)
  T/C: 34 % of control

## O=C(O)CCCNC(=O)c1ccc([N+](=O)[O-])cc1
dose: 125.0 mg/kg/injection, schedule: Q01DX007 (ip), vehicle: methylcellulose (MC)
  T/C: 67 % of control
dose: 250.0 mg/kg/injection, schedule: Q01DX007 (ip), vehicle: methylcellulose (MC)
  T/C: 78 % of control

## C[C@]12C=CC(=O)C=C1CC[C@@H]1[C@@H]2[C@@H](O)C[C@@]2(C)[C@H]1CC[C@]2(O)C(=O)COC(=O)C1CCCC1
dose: 3.5 mg/kg/injection, schedule: Q#A X014 (sc), vehicle: water
  T/C: 68 % of control
dose: 5.0 mg/kg/injection, schedule: Q#A X014 (sc), vehicle: water
  T/C: 35 % of control
dose: 7.5 mg/kg/injection, schedule: Q#A X014 (sc), vehicle: water
  T/C: 49 % of control
dose: 11.5 mg/kg/injection, schedule: Q#A X014 (sc), vehicle: water
  T/C: 47 % of control
dose: 17.5 mg/kg/injection, schedule: Q#A X014 (sc), vehicle: water
  T/C: 32 % of control

## COc1ccc2c(=O)oc3c(OC)cc(CCN(C)C)c4c(=O)oc1c2c34
dose: 0.8 mg/kg/injection, schedule: Q01DX007 (ip), vehicle: water
  T/C: 113 % of control
dose: 1.6 mg/kg/injection, schedule: Q01DX007 (ip), vehicle: water
  T/C: 77 % of control
dose: 3.2 mg/kg/injection, schedule: Q01DX007 (ip), vehicle: water
  T/C: 108 % of control
dose: 6.3 mg/kg/injection, schedule: Q01DX007 (ip), vehicle: water
  T/C: 86 % of control

## NC1(C(=O)NC2(C(=O)O)CCCC2)CCCC1 (H-[Ac5c]-[Ac5c]-OH)
dose: 7.5 mg/kg/injection, schedule: Q#A X014 (ip), vehicle: carboxymethylcellulose (CMC)
  T/C: 66 % of control
dose: 15.0 mg/kg/injection, schedule: Q#A X014 (ip), vehicle: carboxymethylcellulose (CMC)
  T/C: 65 % of control
dose: 30.0 mg/kg/injection, schedule: Q#A X014 (ip), vehicle: carboxymethylcellulose (CMC)
  T/C: 58 % of control
dose: 60.0 mg/kg/injection, schedule: Q#A X014 (ip), vehicle: carboxymethylcellulose (CMC)
  T/C: 32 % of control

## COc1cccc2c1C(=O)c1c(O)c3c(c(O)c1C2=O)C[C@@](O)(C(C)=O)C[C@@H]3OC1CC(N)C(O)C(C)O1 (stereo not given in full)
dose: 1.0 mg/kg/injection, schedule: Q01DX007 (sc), vehicle: steriod suspending solution
  T/C: 86 % of control
dose: 5.0 mg/kg/injection, schedule: Q01DX007 (sc), vehicle: steriod suspending solution
  T/C: 54 % of control and 42 % of control

## O=c1[nH]c(=O)c2[nH]c(N=Nc3ccc(N(CCCl)CCCl)cc3)nc2[nH]1
dose: 6.25 mg/kg/injection, schedule: Q#A X014 (ip), vehicle: saline
  T/C: 97 % of control
dose: 12.5 mg/kg/injection, schedule: Q#A X014 (ip), vehicle: saline
  T/C: 72 % of control
dose: 25.0 mg/kg/injection, schedule: Q#A X014 (ip), vehicle: saline
  T/C: 85 % of control
dose: 50.0 mg/kg/injection, schedule: Q#A X014 (ip), vehicle: saline
  T/C: 34 % of control and 49 % of control
dose: 100.0 mg/kg/injection, schedule: Q#A X014 (ip), vehicle: saline
  T/C: 36 % of control

## C=CN1CCCC1=O
dose: 93.0 mg/kg/injection, schedule: Q01DX007 (ip), vehicle: saline
  T/C: 106 % of control
dose: 98.0 mg/kg/injection, schedule: Q01DX007 (ip), vehicle: saline
  T/C: 70 % of control
dose: 100.0 mg/kg/injection, schedule: Q01DX007 (ip), vehicle: saline
  T/C: 57 % of control
dose: 124.0 mg/kg/injection, schedule: Q01DX007 (ip), vehicle: saline
  T/C: 80 % of control
dose: 148.0 mg/kg/injection, schedule: Q01DX007 (ip), vehicle: saline
  T/C: 65 % of control
dose: 150.0 mg/kg/injection, schedule: Q01DX007 (ip), vehicle: saline
  T/C: 78 % of control
dose: 166.0 mg/kg/injection, schedule: Q01DX007 (ip), vehicle: saline
  T/C: 84 % of control
dose: 500.0 mg/kg/injection, schedule: Q01DX007 (ip), vehicle: saline
  T/C: 9 % of control
dose: 750.0 mg/kg/injection, schedule: Q01DX007 (ip), vehicle: saline
  T/C: 20 % of control

## Nc1ncnc2c1ncn2C1OC(CO)CC1O (stereo not given)
dose: 37.0 mg/kg/injection, schedule: Q01DX007 (ip), vehicle: carboxymethylcellulose (CMC)
  T/C: 104 % of control
dose: 75.0 mg/kg/injection, schedule: Q01DX007 (ip), vehicle: carboxymethylcellulose (CMC)
  T/C: 122 % of control
dose: 150.0 mg/kg/injection, schedule: Q01DX007 (ip), vehicle: carboxymethylcellulose (CMC)
  T/C: 80 % of control
dose: 300.0 mg/kg/injection, schedule: Q01DX007 (ip), vehicle: carboxymethylcellulose (CMC)
  T/C: 53 % of control
